What was measured:
[1] = biological target: T1, human sphingosine-1-phosphate receptor 1 (S1P1) (Homo sapiens (Human), UniProt P21453); assay: β-Arrestin2 recruitment assay (PathHunter), S1P1 CHO-K1 cells; type: cell-based; details: for hS1P1 B-arrestin2 pEC50: β-arrestin2 recruitment, S1P1 CHO-K1 cells; for Emax: CHO-K1, efficacy (SPAN) normalized to fingolimod, read-out: hS1P1 B-arrestin2 SPAN
Outline: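 Enzyme-fragment complementation read-out: agonist-driven β-arrestin2 binding to ProLink-tagged human S1P1 in stable CHO-K1 cells restores β-galactosidase, measured 1 h at room temperature after a 60 min 37° C. compound incubation. Potency as pEC50, efficacy relative to fingolimod (SPAN).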
Target sequence in this assay (P21453 whole entry, looked up, the tested form may be a part): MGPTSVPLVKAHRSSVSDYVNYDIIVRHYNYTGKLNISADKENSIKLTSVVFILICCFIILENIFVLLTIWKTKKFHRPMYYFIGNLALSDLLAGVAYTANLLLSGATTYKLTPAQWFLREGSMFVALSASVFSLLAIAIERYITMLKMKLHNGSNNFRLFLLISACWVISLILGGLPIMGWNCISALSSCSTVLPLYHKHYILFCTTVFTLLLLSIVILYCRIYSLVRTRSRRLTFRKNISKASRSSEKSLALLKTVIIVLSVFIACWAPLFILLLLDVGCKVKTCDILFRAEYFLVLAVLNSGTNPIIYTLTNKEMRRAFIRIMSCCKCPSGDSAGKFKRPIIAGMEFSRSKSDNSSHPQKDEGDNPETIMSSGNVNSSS
Target sequence in this assay (P32121 whole entry partner, looked up, the tested form may be a part): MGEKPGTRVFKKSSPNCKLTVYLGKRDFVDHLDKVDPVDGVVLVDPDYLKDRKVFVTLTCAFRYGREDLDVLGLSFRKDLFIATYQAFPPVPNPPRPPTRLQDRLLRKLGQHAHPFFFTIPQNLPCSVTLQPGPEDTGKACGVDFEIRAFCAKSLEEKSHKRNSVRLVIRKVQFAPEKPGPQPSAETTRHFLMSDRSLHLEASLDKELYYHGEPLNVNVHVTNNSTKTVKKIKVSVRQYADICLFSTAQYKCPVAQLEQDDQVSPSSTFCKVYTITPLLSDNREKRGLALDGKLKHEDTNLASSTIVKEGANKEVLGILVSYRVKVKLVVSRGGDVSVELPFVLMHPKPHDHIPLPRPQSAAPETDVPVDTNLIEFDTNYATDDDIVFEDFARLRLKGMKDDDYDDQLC

[2] = biological target: T1, human sphingosine-1-phosphate receptor 1 (S1P1); assay: Inhibition of cAMP production (HTRF cAMP HiRange), S1P1 CHO-K1 cells; type: cell-based; details: for hS1P1 cAMP pEC50: inhibition of cAMP production, S1P1 CHO-K1 cells; for Emax: CHO-K1, efficacy (SPAN) normalized to fingolimod, read-out: hS1P1 cAMP SPAN
Outline: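 CHO-K1 cells stably co-expressing human S1P1 (C-terminal Prolink tag) and EA-β-arrestin2 were grown in AssayComplete Media 6 at 37° C. and 5% CO2, plated, and incubated overnight. Agonist-driven inhibition of intracellular cAMP was read by TR-FRET with the HTRF cAMP HiRange kit on a PheraStar reader. Potency is pEC50, and efficacy (SPAN) is normalized to fingolimod.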
Target sequence in this assay (P21453 whole entry, looked up, the tested form may be a part): as the sequence (P21453 whole entry, looked up, the tested form may be a part) above

| hS1P1 B-arrestin2 pEC50 [1] | hS1P1 cAMP pEC50 [2] | Emax [1] [%] | Emax [2] [%] | Compound |
| --- | --- | --- | --- | --- |
| <5 | <6.5 |  |  | CCC1(CC)CC(=O)c2cc(-c3nc(-c4ccccc4OC)ns3)ccc2O1 [Compound 257, 2,2-diethyl-6-(3-(2-methoxyphenyl)-1,2,4-thiadiazol-5-yl)chroman-4-one] |
| <5 | <6.5 |  |  | CCC1(CC)CC(=O)c2cc(-c3nc(-c4cccnc4O)no3)ccc2O1 [Compound 258, 2,2-diethyl-6-(3-(2-hydroxypyridin-3-yl)-1,2,4-oxadiazol-5-yl)chroman-4-one] |
| <5 | <6.5 | > 75 | > 75 | COc1cccc(F)c1-c1noc(-c2ccc3c(c2)nnn3C(C)C)n1 [Compound 260, 3-(2-fluoro-6-methoxy-phenyl)-5-(1-isopropylbenzotriazol-5-yl)-1,2,4-oxadiazole] |
| >5 | <6.5 |  |  | CCC1(CC)CC(=O)c2cc(-c3nc(-c4cccc(Cl)c4)no3)ccc2O1 [Compound 261, 6-[3-(3-chlorophenyl)-1,2,4-oxadiazol-5-yl]-2,2-diethyl-chroman-4-one] |
| <5 | <6.5 | < 75 | < 75 | Cc1ccncc1-c1noc(-c2ccc3nnn(C(C)C)c3c2)n1 [Compound 264, 6-[3-(4-methylpyridin-3-yl)-1,2,4-oxadiazol-5-yl]-1-(propan-2-yl)-1H-1,2,3-benzotriazole] |
| >5 | >6.5 | < 75 | > 75 | CCC1(CC)CC(=O)c2cc(-c3nc(-c4sccc4C)no3)ccc2O1 [Compound 265, 2,2-diethyl-6-(3-(3-methylthiophen-2-yl)-1,2,4-oxadiazol-5-yl)chroman-4-one] |
| >5 | <6.5 |  |  | CCC1(CC)CC(=O)c2cc(-c3nc(-c4ccc(S(=O)(=O)NC)cc4)no3)ccc2O1 [Compound 266, 4-(5-(2,2-diethyl-4-oxochroman-6-yl)-1,2,4-oxadiazol-3-yl)-N-methylbenzenesulfonamide] |
| >5 | >6.5 |  |  | CCC1(CC)CC(=O)c2cc(-c3nc(-c4ccccc4OC)no3)ccc2O1 [Compound 268, 2,2-diethyl-6-[3-(2-methoxyphenyl)-1,2,4-oxadiazol-5-yl]chroman-4-one] |
| <5 | <6.5 | < 75 | < 75 | CCC1(CC)CC(=O)c2cc(-c3nc(-c4ccc(C)cc4)no3)ccc2O1 [Compound 269, 2,2-diethyl-6-[3-(p-tolyl)-1,2,4-oxadiazol-5-yl]chroman-4-one] |
| <5 | <6.5 |  |  | C=CCn1nnc2cc(-c3nc(-c4ccccc4)no3)ccc21 [Compound 270, 5-(3-phenyl-1,2,4-oxadiazol-5-yl)-1-(prop-2-en-1-yl)-1H-1,2,3-benzotriazole] |
| <5 | <6.5 | < 75 | < 75 | CC(C)CCn1nnc2cc(-c3nc(-c4ccccc4)no3)ccc21 [Compound 271, 1-(3-methylbutyl)-5-(3-phenyl-1,2,4-oxadiazol-5-yl)-1H-1,2,3-benzotriazole] |
| <5 | <6.5 | < 75 | < 75 | COc1cncc(-c2nc(-c3ccc4c(c3)nnn4C(C)C)no2)c1 [Compound 272, 3-(1-isopropyl-1H-benzo[d][1,2,3]triazol-5-yl)-5-(5-methoxypyridin-3-yl)-1,2,4-oxadiazole] |
| <5 | <6.5 |  |  | Cc1cccc(-c2nc(-c3ccc4c(c3)nnn4C3CCCC3)no2)c1 [Compound 273, 3-(1-cyclopentyl-1H-benzo[d][1,2,3]triazol-5-yl)-5-(m-tolyl)-1,2,4-oxadiazole] |
| >5 | <6.5 | < 75 | > 75 | CC1(C)CC(=O)c2cc(-c3nc(-c4cccnc4)no3)ccc2O1 [Compound 274, 2,2-dimethyl-6-[3-(pyridin-3-yl)-1,2,4-oxadiazol-5-yl]-3,4-dihydro-2H-1-benzopyran-4-one] |
| <5 | <6.5 | < 75 | < 75 | COc1ccc(-c2nc(-c3ccc4c(c3)nnn4C3CCCC3)no2)cc1OC [Compound 275, 3-(1-cyclopentyl-1H-benzo[d][1,2,3]triazol-5-yl)-5-(3,4-dimethoxyphenyl)-1,2,4-oxadiazole] |
| <5 | <6.5 | > 75 | > 75 | CC(C)n1nnc2cc(-c3noc(-c4ccccc4C#N)n3)ccc21 [Compound 279, 2-(3-(1-isopropyl-1H-benzo[d][1,2,3]triazol-5-yl)-1,2,4-oxadiazol-5-yl)benzonitrile] |
| <5 | <6.5 | < 75 | < 75 | O=C1CC2(CCCCC2)Oc2ccc(-c3nc(-c4ccncc4)no3)cc21 [Compound 280, 6-[3-(pyridin-4-yl)-1,2,4-oxadiazol-5-yl]-3,4-dihydrospiro[1-benzopyran-2,1′-cyclohexane]-4-one] |
| <5 | <6.5 | < 75 | < 75 | COc1cc(-c2noc(-c3ccc4c(c3)nnn4C3CCCC3)n2)ccn1 [Compound 281, 1-cyclopentyl-5-[3-(2-methoxypyridin-4-yl)-1,2,4-oxadiazol-5-yl]-1H-1,2,3-benzotriazole] |
| >5 | >6.5 | > 75 | > 75 | CC(C)n1nnc2cc(-c3nc(-c4ccccc4Br)no3)ccc21 [Compound 282, 5-[3-(2-bromophenyl)-1,2,4-oxadiazol-5-yl]-1-(propan-2-yl)-1H-1,2,3-benzotriazole] |
| <5 | <6.5 | < 75 | < 75 | Brc1ccccc1-c1nc(-c2ccc3c(c2)nnn3Cc2cccnc2)no1 [Compound 283, 5-(2-bromophenyl)-3-(1-(pyridin-3-ylmethyl)-1H-benzo[d][1,2,3]triazol-5-yl)-1,2,4-oxadiazole] |
| <5 | <6.5 | < 75 | < 75 | COc1ccc(-c2noc(-c3ccc4c(c3)nnn4C3CCCCC3)n2)cc1C(F)(F)F [Compound 284, 1-cyclohexyl-5-{3-[4-methoxy-3-(trifluoromethyl)phenyl]-1,2,4-oxadiazol-5-yl}-1H-1,2,3-benzotriazole] |
| <5 | <6.5 | < 75 | < 75 | c1ccc(Oc2ccc(-c3noc(-c4ccc5c(c4)nnn5C4CC4)n3)cc2)cc1 [Compound 285, 1-cyclopropyl-5-[3-(4-phenoxyphenyl)-1,2,4-oxadiazol-5-yl]-1H-1,2,3-benzotriazole] |
| >5 | >6.5 | > 75 | > 75 | COc1ccccc1-c1noc(-c2ccc3c(c2)nnn3C(C)C)n1 [Compound 286, 5-(1-isopropyl-1H-benzo[d][1,2,3]triazol-5-yl)-3-(2-methoxyphenyl)-1,2,4-oxadiazole] |
| <5 | <6.5 | < 75 | < 75 | Cc1ccccc1-c1noc(-c2ccc3c(c2)nnn3CC2CC2)n1 [Compound 288, 1-(cyclopropylmethyl)-5-[3-(2-methylphenyl)-1,2,4-oxadiazol-5-yl]-1H-1,2,3-benzotriazole] |
| <5 | <6.5 |  |  | CC(C)Cn1nnc2cc(-c3nc(-c4ccccc4Cl)no3)ccc21 [Compound 289, 5-[3-(2-chlorophenyl)-1,2,4-oxadiazol-5-yl]-1-(2-methylpropyl)-1H-1,2,3-benzotriazole] |
| <5 | <6.5 | < 75 | < 75 | CC(C)n1nnc2cc(-c3noc(-c4ccc(C5CCCCC5)cc4)n3)ccc21 [Compound 290, 5-(4-cyclohexylphenyl)-3-(1-isopropyl-1H-benzo[d][1,2,3]triazol-5-yl)-1,2,4-oxadiazole] |
| <5 | <6.5 | < 75 | < 75 | CC1(C)CC(=O)c2cc(-c3nc(-c4ccncc4)no3)ccc2O1 [Compound 291, 2,2-dimethyl-6-[3-(pyridin-4-yl)-1,2,4-oxadiazol-5-yl]-3,4-dihydro-2H-1-benzopyran-4-one] |
| <5 | <6.5 | < 75 | < 75 | c1ccc(-c2noc(-c3ccc4c(c3)nnn4C3CCCCC3)n2)cc1 [Compound 292, 1-cyclohexyl-5-(3-phenyl-1,2,4-oxadiazol-5-yl)-1H-1,2,3-benzotriazole] |
| <5 | <6.5 | > 75 | < 75 | CC(C)n1nnc2cc(-c3nc(-c4ccccc4)co3)ccc21 [Compound 294, 5-(4-phenyl-1,3-oxazol-2-yl)-1-(propan-2-yl)-1H-1,2,3-benzotriazole] |

From patent US11912693B2, “Compounds for modulating S1P1 activity and methods of using the same” (TREVENA, INC., priority 2017, dated 2024)
